Read-outs that look alike come from different tables or passages of the source.
Assays:
[1] = system: primary human T-cells; test: Proliferation assay after 5 days (CellTiter-Glo, CD3 stimulation; PBS counter screen); type: cell-based; conditions: T-cell, 120 h, CD3 stimulation; for Emax: 5 days, normalized to reference compound A1 as stimulator control = 100%, DMSO neutral control, read-out: Emax proliferation (% activation); for EC50: primary human T-cells, CellTiter-Glo after 5 days, EC50 of fitted sigmoidal curve, read-out: Tcell Proliferation CD3 EC50
Method in brief: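 After compound addition to medium-only plates, cells are cultured 5 days, equilibrated to room temperature, mixed with an equal volume of CellTiter-Glo 2.0 and rocked 15 min before luminescence is read. Signal reflects ATP content, taken as proportional to cell number.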

[2] = system: primary human T-cells

SMILES | EC50 [2] [nM] | Emax ([1]; Homo sapiens) [%] | EC50 ([1]; Homo sapiens) [nM] | EC50 [1] [nM]
CC(C)(C)NC(=O)c1nc(-c2ccc3c(c2)N(Cc2ccc(Cl)cc2)C(=O)[C@@H](N)CS3(=O)=O)no1 [Example 354, 3-[(3R)-3-amino-5-[(4-chlorophenyl)methyl]-1,1,4-trioxo-2,3-dihydro-1λ^6,5-benzothiazepin-7-yl]-N-tert-butyl-1,2,4-oxadiazole-5-carboxamide] | > 10000 | 77 | 4710 | 
CC(C)(C)NC(=O)c1nc(-c2ccc3c(c2)N(Cc2ccc(OC(F)(F)F)cc2)C(=O)[C@@H](N)CS3(=O)=O)no1 [Example 355, 3-[(3R)-3-amino-1,1,4-trioxo-5-[[4-(trifluoromethoxy)phenyl]methyl]-2,3-dihydro-1λ^6,5-benzothiazepin-7-yl]-N-tert-butyl-1,2,4-oxadiazole-5-carboxamide] | 6050 | 65 | 1620 | 
CC(C)(F)c1nc(-c2cc3c(cc2F)S(=O)(=O)C[C@H](N)C(=O)N3Cc2ccc(F)cc2)no1 [Example 358, (3R)-3-amino-8-fluoro-7-[5-(1-fluoro-1-methyl-ethyl)-1,2,4-oxadiazol-3-yl]-5-[(4-fluorophenyl)methyl]-1,1-dioxo-2,3-dihydro-1λ^6,5-benzothiazepin-4-one] | 9450 | 127 | 1860 | 
C#CCC(C)(C)c1nnc(-c2cc3c(cc2F)S(=O)(=O)C[C@H](N)C(=O)N3Cc2ccc(C3(C(F)(F)F)N=N3)cc2)o1 [Example 359, (3R)-3-amino-7-[5-(1,1-dimethylbut-3-ynyl)-1,3,4-oxadiazol-2-yl]-8-fluoro-1,1-dioxo-5-[[4-[3-(trifluoromethyl)diazirin-3-yl]phenyl]methyl]-2,3-dihydro-1λ^6,5-benzothiazepin-4-one] | 208 | 115 | 81.7 | 
CC(C)(C)c1nnc(-c2ccc3c(c2)N(Cc2ccc(OC(F)(F)F)cc2)C(=O)[C@@H](N)CS3(=O)=O)o1 [Example 360, (3R)-3-amino-7-(5-tert-butyl-1,3,4-oxadiazol-2-yl)-1,1-dioxo-5-[[4-(trifluoromethoxy)phenyl]methyl]-2,3-dihydro-1λ^6,5-benzothiazepin-4-one] | 922 | 103 | 384 | 
CC(N)(c1nnc(-c2ccc3c(c2)N(Cc2ccc(Cl)cc2)C(=O)[C@@H](N)CS3(=O)=O)o1)C(F)(F)F (stereo partly drawn) [Example 362, (3R)-3-amino-7-[5-(1-amino-2,2,2-trifluoro-1-methyl-ethyl)-1,3,4-oxadiazol-2-yl]-5-[(4-chlorophenyl)methyl]-1,1-dioxo-2,3-dihydro-1λ^6,5-benzothiazepin-4-one] | 1730 | 84 | 3720 | 
N[C@H]1CS(=O)(=O)c2ccc(-c3nnc(C(F)(F)C(F)(F)F)o3)cc2N(Cc2ccc(Cl)cc2)C1=O [Example 363, (3R)-3-amino-5-[(4-chlorophenyl)methyl]-1,1-dioxo-7-[5-(1,1,2,2,2-pentafluoroethyl)-1,3,4-oxadiazol-2-yl]-2,3-dihydro-1λ^6,5-benzothiazepin-4-one] | 2170 | 50 |  | > 10000
CC(C)(C#N)c1nnc(-c2ccc3c(c2)N(Cc2ccc(Cl)cc2)C(=O)[C@@H](N)CS3(=O)=O)o1 [Example 364, 2-[5-[(3R)-3-amino-5-[(4-chlorophenyl)methyl]-1,1,4-trioxo-2,3-dihydro-1λ^6,5-benzothiazepin-7-yl]-1,3,4-oxadiazol-2-yl]-2-methyl-propanenitrile] | 981 | 108 | 928 | 
COC1(c2nnc(-c3ccc4c(c3)N(Cc3ccc(Cl)cc3)C(=O)[C@@H](N)CS4(=O)=O)o2)CC1 [Example 365, (3R)-3-amino-5-[(4-chlorophenyl)methyl]-7-[5-(1-methoxycyclopropyl)-1,3,4-oxadiazol-2-yl]-1,1-dioxo-2,3-dihydro-1λ^6,5-benzothiazepin-4-one] | 957 | 142 | 686 | 
N[C@H]1CS(=O)(=O)c2ccc(-c3nnc(C(F)C(F)(F)F)o3)cc2N(Cc2ccc(Cl)cc2)C1=O (stereo partly drawn) [Example 369, (3R)-3-amino-5-[(4-chlorophenyl)methyl]-1,1-dioxo-7-[5-(1,2,2,2-tetrafluoroethyl)-1,3,4-oxadiazol-2-yl]-2,3-dihydro-1λ^6,5-benzothiazepin-4-one] | 1700 | 114 |  | 466

Now from value to molecule, other results behind:

EC50 [2] [nM] | SMILES | Emax ([1]; Homo sapiens) [%] | EC50 ([1]; Homo sapiens) [nM] | EC50 [1] [nM]
584 | N[C@H]1CS(=O)(=O)c2ccc(-c3nnc(C4(C(F)(F)F)CC4)o3)cc2N(Cc2ccc(Cl)cc2)C1=O [Example 366, (3R)-3-amino-5-[(4-chlorophenyl)methyl]-1,1-dioxo-7-[5-[1-(trifluoromethyl)cyclopropyl]-1,3,4-oxadiazol-2-yl]-2,3-dihydro-1λ^6,5-benzothiazepin-4-one] | 106 | 677 | 
576 | CC(C#N)c1nnc(-c2ccc3c(c2)N(Cc2ccc(Cl)cc2)C(=O)[C@@H](N)CS3(=O)=O)o1 (stereo partly drawn) [Example 367, 2-[5-[(3R)-3-amino-5-[(4-chlorophenyl)methyl]-1,1,4-trioxo-2,3-dihydro-1λ^6,5-benzothiazepin-7-yl]-1,3,4-oxadiazol-2-yl]propanenitrile] | 87 | 3690 | 
5550 | COC(C)(C)c1nnc(-c2ccc3c(c2)N(Cc2ccc(Cl)cc2)C(=O)[C@@H](N)CS3(=O)=O)o1 [Example 368] | 103 | 6560 | 
5100 | COC(C#N)c1nnc(-c2ccc3c(c2)N(Cc2ccc(Cl)cc2)C(=O)[C@@H](N)CS3(=O)=O)o1 (stereo partly drawn) [Example 370, 2-[5-[(3R)-3-amino-5-[(4-chlorophenyl)methyl]-1,1,4-trioxo-2,3-dihydro-1λ^6,5-benzothiazepin-7-yl]-1,3,4-oxadiazol-2-yl]-2-methoxy-acetonitrile] | 31 | > 10000 | 
> 10000 | COC1(c2nnc(-c3ccc4c(c3)N(Cc3ccc(Cl)cc3)C(=O)[C@@H](N)CS4(=O)=O)o2)CCOCC1 [Example 371, (3R)-3-amino-5-[(4-chlorophenyl)methyl]-7-[5-(4-methoxytetrahydropyran-4-yl)-1,3,4-oxadiazol-2-yl]-1,1-dioxo-2,3-dihydro-1λ^6,5-benzothiazepin-4-one] | 84 | 2760 | 
1290 | COC(C)(c1nnc(-c2ccc3c(c2)N(Cc2ccc(Cl)cc2)C(=O)[C@@H](N)CS3(=O)=O)o1)C(F)(F)F (stereo partly drawn) [Example 372, (3R)-3-amino-5-[(4-chlorophenyl)methyl]-1,1-dioxo-7-[5-(2,2,2-trifluoro-1-methoxy-1-methyl-ethyl)-1,3,4-oxadiazol-2-yl]-2,3-dihydro-1λ^6,5-benzothiazepin-4-one] | 118 | 367 | 
15100 | N[C@H]1CS(=O)(=O)c2ccc(-c3nnc(-c4ccccc4)o3)cc2N(Cc2ccc(Cl)cc2)C1=O [Example 374, (3R)-3-amino-5-[(4-chlorophenyl)methyl]-1,1-dioxo-7-(5-phenyl-1,3,4-oxadiazol-2-yl)-2,3-dihydro-1λ^6,5-benzothiazepin-4-one] | 52 | > 10000 | 
461 | N[C@H]1CS(=O)(=O)c2ccc(-c3nnc(-c4ccc(F)cc4)o3)cc2N(Cc2ccc(Cl)cc2)C1=O [Example 375, (3R)-3-amino-5-[(4-chlorophenyl)methyl]-7-[5-(4-fluorophenyl)-1,3,4-oxadiazol-2-yl]-1,1-dioxo-2,3-dihydro-1λ^6,5-benzothiazepin-4-one] | 62 | 817 | 

Source: US20240368150A1 (Hoffmann-La Roche Inc., priority 2021, published 2024)
